Read-outs that look alike come from different tables or passages of the source.
What was measured:
Assay type in all cases: cell-based
[1] = system: Hep3B, HepG2, SK-Hep1 and VX2 cells; assay: Active caspase-3 western blot; conditions: all four cell lines; 100, 150, 200 μM
Experimental: The apoptosis of 3-BrPA treated cells was evaluated using Annexin V staining and the formation of active caspase-3. Cells treated with 3-BrPA were stained with anti-Annexin V and analyzed by flow cytometry as well as fluorescent microscopy. Flow cytometry was performed using a Becton-Dickinson FACSCalibur. The gating was done based on unstained control cells, Annexin V—PE stained and 7-AAD stained control cells. For fluorescent microscopy, Annexin V staining was performed using Annexin V staining Microscopy kit (BD Biosciences, USA) according to the protocol recommended by the manufacturer. In brief, cells grown in chambered slides were treated with either 3BrPA or the vehicle, washed once with ice-cold PBS followed by two washes with binding buffer, at the end of the treatment period. Cells were then incubated with the FITC-conjugated Annexin V fluorescent antibody for 15 min followed by a gentle wash. The cells were kept in binding buffer and images were observed captured using a Zeiss Axiovert 200 Microscope (Carl Zeiss Microimaging Inc., USA). Active caspase-3, an apoptotic marker, was identified by western blot analysis. Lysates prepared from equal numbers of cells treated with different concentrations of 3BrPA were subjected to SDS-PAGE electrophoresis and immunoblotting against active (cleaved) caspase-3. […]

Vx-2 cell line = assay: ATP dependent luminescence cell viability assay, VX2; conditions: for IC50: Vx-2, read-out: IC50 (ATP depletion)
Source text: (§1) The non-small cell lung cancer (NSCLC) cell line NCI-H1299, the breast cancer cell lines MCF7 and MDA MB 231 and the Hep3B, Hep2G and SK-Hep1 cells were obtained from the American Type Culture Collection (ATCC) (Manassas, Va., USA) and maintained as a monolayer culture in Eagle's minimum essential medium (MEM, Invitrogen, Gaithersburg, Md., USA) supplemented with 10% fetal bovine serum at 37 C and 5% CO2. All treatments were done in triplicate samples on 96-well plates. VX2 cells were maintained as described in Geschwind et al., Cancer Res., 62:3909-3913 (2002).
Cytotoxicity of 3-BrPA was evaluated by the IC50 values, representing the drug concentration which depletes ATP by 50% compared to non-treated control. On day 1, cells were seeded into 96-well plates in a volume of 100 μl per well. On day 2, the medium of all wells was removed and an aliquot of 100 μl of media having serial dilutions of 3-BrPA in PBS, NaHCO3, NaOH, KOH and KHCO3 was added to the appropriate well. […] Briefly, 100 μl assay reagent was added to each well and mixed at room temperature for 2 min to develop luminescent signal. The luminescence intensity (cps) from each sample was determined with a spectrometer (Model Victor III, Perkin Elmer, Mass.). Relative luminescence was calculated in proportion to the numbers of living cells per sample well. The results are expressed as the mean of three independent experiments. The intracellular ATP contents were calculated and normalized by equal cell number and expressed as the percentage of the control cells. The IC50 values were estimated graphically from dose-response plots.
The efficacy of 3-BrPA in the treatment of liver cancer cells was further tested using the cancer cell lines Hep3B, HepG2, SK-Hep1 and VX2. […]
(§2) The effects on cell viability and cellular metabolism of 3-BrPA on Hep3B and VX2 cells were examined using luminescence ATP assays, as described above. […]

H1299 cells = assay: Luminescence ATP assay, H1299
Experimental: (§3) Cytotoxicity of 3-BrPA was evaluated by the IC50 values, representing the drug concentration which depletes ATP by 50% compared to non-treated control. On day 1, cells were seeded into 96-well plates in a volume of 100 μl per well. On day 2, the medium of all wells was removed and an aliquot of 100 μl of media having serial dilutions of 3-BrPA in PBS, NaHCO3, NaOH, KOH and KHCO3 was added to the appropriate well. After 24 h of drug exposure cytotoxic effects of 3-BrPA were monitored by cellular ATP level using CellTiter-Glo™ assay reagents from Promega Corp (Madison, Wis.). Briefly, 100 μl assay reagent was added to each well and mixed at room temperature for 2 min to develop luminescent signal. The luminescence intensity (cps) from each sample was determined with a spectrometer (Model Victor III, Perkin Elmer, Mass.). Relative luminescence was calculated in proportion to the numbers of living cells per sample well. The results are expressed as the mean of three independent experiments. The intracellular ATP contents were calculated and normalized by equal cell number and expressed as the percentage of the control cells. The IC50 values were estimated graphically from dose-response plots.
The anti-metabolic effect of 3-BrPA on H1299 cells was examined using luminescence ATP assays, as described above. […]

SK-Hep 1 cells = assay: ATP dependent luminescence cell viability assay, SK-Hep1
Source text: as §1
(§4) Cytotoxicity of 3-BrPA was evaluated by the IC50 values, representing the drug concentration which depletes ATP by 50% compared to non-treated control. On day 1, cells were seeded into 96-well plates in a volume of 100 μl per well. On day 2, the medium of all wells was removed and an aliquot of 100 μl of media having serial dilutions of 3-BrPA in PBS, NaHCO3, NaOH, KOH and KHCO3 was added to the appropriate well. […] Briefly, 100 μl assay reagent was added to each well and mixed at room temperature for 2 min to develop luminescent signal. The luminescence intensity (cps) from each sample was determined with a spectrometer (Model Victor III, Perkin Elmer, Mass.). […]
as §2

MDA MB 231 cells = assay: Luminescence ATP assay, MDA MB 231
Experimental: as §3
The anti-metabolic effect of 3-BrPA on MCF7 and MDA MB231 cells was examined using luminescence ATP assays, as described above. […]

HepG2 cells = assay: ATP dependent luminescence cell viability assay, HepG2
Source text: as §1, §4, §2

O=C(O)C(=O)CBr [3-BrPA, 3-bromopyruvate]
Caspase-3 activation (immunoblot) [1]: dose dependent increase
Level of ATP (Vx-2 cell line; VX2, 3, 24, 48 hours): dose and time dependent decrease
IC50 (Vx-2 cell line; at 48 hours): 50 µM
IC50 (Vx-2 cell line; treatment time not given): 60 µM
ATP level (bioluminescent quantification) (H1299 cells): dose and time dependent energy (ATP) depletion
Level of ATP (SK-Hep 1 cells; SK-Hep1, 3, 24, 48 hours): dose and time dependent decrease
IC50 (SK-Hep 1 cells; SK-Hep 1, at 48 hours, read-out: IC50 (ATP depletion)): 125 µM
ATP level (bioluminescent quantification) (MDA MB 231 cells): dose and time dependent energy (ATP) depletion
Level of ATP (HepG2 cells; 3, 24, 48 hours): dose and time dependent decrease
IC50 (HepG2 cells; at 48 hours, read-out: IC50 (ATP depletion)): 125 µM

Source: patent publication US10130598B2, “Methods and compositions for administration of 3-halopyruvate and related compounds for the treatment of cancer” (The Johns Hopkins University, priority 2008, dated 2018)
